Assay type in all cases: cell-based
The subject of test [1] is Aspergillus niger (A. niger—ATCC 16404). The experiment in a line: Synergy test, microtiter plate high resolution MIC assay, mold. Also noted: key to SI (calculated synergy index) / SI (synergy index): SI = Qa/QA + Qb/QB (mixture vs. alone end-point concentrations). Particulars: for MIC: Aspergillus niger. An excerpt: (§1) One measure of synergism is the industrially accepted method described by Kull, F. C.; Eisman, P. C.; Sylwestrowicz, H. D. and Mayer, R. L., in Applied Microbiology 9:538-541 (1961), using the ratio determined by the formula: Qa/QA+Qb/QB=Synergy Index (“SI”) wherein: • QA=concentration of compound A (first component) in ppm, acting alone, which produced an end point (MIC of Compound A). • Qa=concentration of compound A in ppm, in the mixture, which produced an end point. • QB=concentration of compound B (second component) in ppm, acting alone, which produced an end point (MIC of Compound B). • Qb=concentration of compound B in ppm, in the mixture, which produced an end point.
(§2) When the sum of Qa/QA and Qb/QB is greater than one, antagonism is indicated. […] The lower the SI, the greater the synergy shown by that particular mixture. The minimum inhibitory concentration (MIC) of a microbicide is the lowest concentration tested under a specific set of conditions that prevents the growth of added microorganisms.
(§3) Synergy tests were conducted using standard microtiter plate assays with media designed for optimal growth of the test microorganism. Soybean Casein Digest Broth (Tryptic Soy Broth, TSB medium) or minimal salt medium supplemented with 0.2% glucose and 0.1% yeast extract (M9GY medium) was used for testing bacteria; Potato Dextrose Broth (PDB medium) was used for testing yeast and mold. In this method, a wide range of combinations of microbicides was tested by conducting high resolution MIC assays in the presence of various concentrations of MI. High resolution MICs were determined by adding varying amounts of microbicide to one column of a microtitre plate and doing subsequent ten-fold dilutions using an automated liquid handling system to obtain a series of endpoints ranging from 2 ppm to 10,000 ppm active ingredient.
(§4) For MI combinations, the synergy of the combinations of the present invention was determined against two bacteria, Escherichia coli (E. coli—ATCC #8739) or Pseudomonas aeruginosa (P. aeruginosa—ATCC #15442), a yeast, Candida albicans (C. albicans—ATCC 10231), and a mold, Aspergillus niger (A. niger—ATCC 16404). The bacteria were used at a concentration of about 5×10^6 bacteria per mL and the yeast and mold at 5×10^5 fungi per mL. These microorganisms are representative of natural contaminants in many consumer and industrial applications. […] (bacteria).
(§5) For BIT combinations, the synergy of the combinations of the present invention was determined against a bacterium, Pseudomonas aeruginosa (P. aeruginosa—ATCC #15442), a yeast, Candida albicans (C. albicans—ATCC 10231), and a mold, Aspergillus niger (A. niger—ATCC 16404). The bacteria were used at a concentration of about 5×10^6 bacteria per mL and the yeast and mold at 5×10^5 fungi per mL. These microorganisms are representative of natural contaminants in many consumer and industrial applications. […] (yeast and mold) or 30° C. (bacteria).

Test [2] deals with Pseudomonas aeruginosa (P. aeruginosa—ATCC #15442). The experiment in a line: Synergy test, microtiter plate high resolution MIC assay, bacterium. Also noted: key to SI (calculated synergy index) / SI (synergy index): SI = Qa/QA + Qb/QB (mixture vs. alone end-point concentrations). Particulars: P. aeruginosa 15442, M9GY; for Qb: alone or mixed with BIT; for MIC: Pseudomonas aeruginosa.
Source text: as §1, §2, §3, §4, §5

For test [3], the system named is Escherichia coli (E. coli—ATCC #8739). Described as above. The settings on record: E. coli 8739, M9GY; for Qb: alone or mixed with BIT.
Source text: as §1, §2
as §3, with “In this method, a wide range of combinations of microbicides was tested by conducting high resolution MIC assays in the presence of various concentrations of MI.” left out
as §4

Test [4] concerns Candida albicans (C. albicans—ATCC 10231). The experiment in a line: Synergy test, microtiter plate high resolution MIC assay, yeast. The settings on record: C. albicans 10231, PDB; for Qb: alone or mixed with BIT.
Source text: as §1, §2, §3, §4, §5

[5] abbreviates: benzyl alcohol concentration giving end point (MIC), 48 hours.
Setting [6] is: synergy index BIT + benzyl alcohol, 48 hours.
Where [7] appears, read: caprylyl glycol concentration giving end point (MIC), 24 hours.
Where [8] appears, read: synergy index BIT + caprylyl glycol, 24 hours.
The mark [9] stands for this setting: diazolidinyl urea concentration giving end point (MIC), 48 hours.
Where [10] appears, read: synergy index BIT + diazolidinyl urea, 48 hours.

Here are results for eleven compounds from US7468384B2, “Microbicidal composition” (Rohm and Haas Company, priority 2004, dated 2008).

Like-named read-outs stand apart in the source and are kept apart here.

Turning to `CNC(=O)c1ccccc1SSc1ccccc1C(=O)NC` [2,2′-dithiobis(N-methylbenzamide)], in test [1] (ATCC16404, 72 h, 2,2′-dithiobis(N-methylbenzamide) concentration giving end point (MIC), alone or mixed with BIT, A. niger 16404, PDB, 3 days, read-out: Qb), the MIC is 1000 µg/mL. In addition, the SI is 1.00 in test [1] (synergy index BIT + 2,2′-dithiobis(N-methylbenzamide), A. niger 16404, PDB, 3 days) and 1.00 in test [2] (synergy index BIT + 2,2′-dithiobis(N-methylbenzamide), 48 hours). In test [2] (2,2′-dithiobis(N-methylbenzamide) concentration giving end point (MIC), 48 hours), the Qb was 200 ppm.
In the case of `OCc1ccccc1` [Benzyl alcohol], in test [1] (ATCC16404, 168 h, benzyl alcohol concentration giving end point (MIC), alone or mixed with BIT, A. niger 16404, PDB, 1 week, read-out: Qb), the MIC was 5000 µg/mL. Besides, the SI is reported as 1.00 in test [1] (synergy index BIT + benzyl alcohol, A. niger 16404, PDB, 1 week); 1.00 in test [2] (setting [6]); 1.00 in test [3] (synergy index BIT + benzyl alcohol, 24 hours); 1.00 in test [4] (setting [6]). For the same compound, the Qb was 200 ppm in test [2] (setting [5]); 4000 ppm in test [3] (benzyl alcohol concentration giving end point (MIC), 24 hours); 4000 ppm in test [4] (setting [5]).
Take `CCCCCCC(O)CO` (stereo not shown) [Caprylyl glycol]: the “MIC of component acting alone (QA / QB)” value in test [1] (A. niger 16404, PDB, 1 week) is listed as 3000 ppm; in test [2] (48 hours) it was 3000 ppm; in test [3] (24 hours) it was 2000 ppm; in test [4] (48 hours) it was 2000 ppm. Besides, the Qb in test [1] (caprylyl glycol concentration giving end point (MIC), alone or mixed with BIT, A. niger 16404, PDB, 1 week) was 2000 ppm; in test [2] (setting [7]) it was 3000 ppm; in test [3] (setting [7]), 2000 ppm; in test [4] (setting [7]), 2000 ppm. For the same compound, the SI in test [1] (synergy index BIT + caprylyl glycol, A. niger 16404, PDB, 1 week) is listed as 1.00; in test [2] (setting [8]) it was 1.00; in test [3] (setting [8]), 1.00; in test [4] (setting [8]), 1.00.
For `O=C(NCO)N(CO)C1(CO)C(=O)NC(=O)N1CO` (stereo not shown) [Diazolidinyl urea], in test [1] (ATCC16404, 72 h, diazolidinyl urea concentration giving end point (MIC), alone or mixed with BIT, A. niger 16404, PDB, 3 days, read-out: Qb), the MIC was 1000 µg/mL. The SI is on record as 1.00 in test [1] (synergy index BIT + diazolidinyl urea, A. niger 16404, PDB, 3 days); 1.00 in test [2] (setting [10]); 1.00 in test [3] (setting [10]); 1.00 in test [4] (synergy index BIT + diazolidinyl urea, 24 hours). Also, the Qb was 80 ppm in test [2] (setting [9]); 100 ppm in test [3] (setting [9]); 2000 ppm in test [4] (diazolidinyl urea concentration giving end point (MIC), 24 hours).
For the compound `O=C(O)CN(CCN(CC(=O)O)CC(=O)O)CC(=O)O` [EDTA, ethylenediamine tetraacetic acid], in test [1] (ATCC16404, 96 h, read-out: Qb), the MIC is 2000 µg/mL. For the same compound, in test [1] (synergy index BIT + EDTA, A. niger 16404, PDB, 4 days), the SI is reported as 1.00.
Regarding `O=C([O-])CNCO.[Na+]` [Sodium hydroxymethylglycinate], the MIC in test [1] (ATCC16404, 72 h, read-out: Qb (second component at end point, MIC)) was 600 µg/mL; in test [2] (ATCC15442, 24 h, read-out: Qb (second component at end point, MIC), Table 27, Sodium hydroxymethylglycinate with BIT, 24 hours, alone where Qa = 0) it was 2000 µg/mL. Further, the “SI (synergy index)” value is reported as 1.00 in test [1] (Table 27, A. niger 16404, PDB, 3 days) and 1.00 in test [2] (Table 27, 24 hours).
Turning to `CCOC(=O)c1ccc(O)cc1` [ethylparaben], in test [1] (ATCC16404, 72 h, ethylparaben concentration giving end point (MIC), alone or mixed with BIT, A. niger 16404, PDB, 3 days, read-out: Qb), the MIC was 2000 µg/mL. For the same compound, the SI in test [1] (synergy index BIT + ethylparaben, A. niger 16404, PDB, 3 days) is reported as 1.00; in test [2] (synergy index BIT + ethylparaben, 48 hours) it was 1.00. The Qb in test [2] (ethylparaben concentration giving end point (MIC), 48 hours) was 3000 ppm.
In the case of `COC(=O)c1ccc(O)cc1` [methylparaben], the MIC in test [1] (ATCC16404, 96 h, read-out: Qb) is 800 µg/mL. Moreover, the SI in test [1] (synergy index BIT + methylparaben, A. niger 16404, PDB, 4 days) is 1.00; in test [2] (synergy index BIT + methylparaben, 48 hours), 1.00. Further, in test [2] (methylparaben concentration giving end point (MIC), 48 hours), the Qb is 3000 ppm.
As for `CCCOC(=O)c1ccc(O)cc1` [propylparaben], the MIC in test [1] (ATCC16404, 72 h, Table 23, propylparaben with BIT, A. niger 16404, PDB, 3 days, alone where Qa = 0, read-out: Qb (second component at end point, MIC)) was 1000 µg/mL; in test [2] (ATCC15442, Table 23, propylparaben with BIT, 24 hours, alone where Qa = 0, read-out: Qb (second component at end point, MIC)) it was 10000 µg/mL. The “SI (synergy index)” value is given as 1.00 in test [1] (Table 23, A. niger 16404, PDB, 3 days) and 1.00 in test [2] (Table 23, 24 hours).
On to Benzalkonium chloride, for which the “SI (calculated synergy index)” value is listed as 1.00 in test [1] (Table 8, A. niger 16404, PDB, 1 week) and 1.00 in test [2] (Table 8, 48 hours). Moreover, the “Qb: end-point activity (MIC) of second component in the mixture (alone, QB, where Qa = 0)” value in test [1] (Table 8, A. niger 16404, PDB, 1 week, B = Benzalkonium chloride) is 200 ppm; in test [2] (Table 8, 48 hours, B = Benzalkonium chloride) it was 40 ppm.
On to zinc pyrithione, for which the “SI (synergy index)” value in test [1] (Table 28, A. niger 16404, PDB, 1 week) is 1.00; in test [2] (Table 28, 48 hours), 1.00. Further, the “Qb (second component at end point, MIC)” value in test [1] (Table 28, zinc pyrithione with BIT, A. niger 16404, PDB, 1 week, alone where Qa = 0) was 8 ppm; in test [2] (Table 28, zinc pyrithione with BIT, 48 hours, alone where Qa = 0) it was 80 ppm.
